Results on 19 compounds are retold here after ChEMBL document CHEMBL1145886, “Design, synthesis, and biological evaluation of 6-substituted-3-(4-methanesulfonylphenyl)-4-phenylpyran-2-ones: a novel class of diarylheterocyclic selective cyclooxygenase-2 inhibitors” (J Med Chem, 2003).

The target of assay [1] is T1, Prostaglandin G/H synthase 1 (Ovis aries, UniProt P05979).
T1 sequence (P05979 whole entry): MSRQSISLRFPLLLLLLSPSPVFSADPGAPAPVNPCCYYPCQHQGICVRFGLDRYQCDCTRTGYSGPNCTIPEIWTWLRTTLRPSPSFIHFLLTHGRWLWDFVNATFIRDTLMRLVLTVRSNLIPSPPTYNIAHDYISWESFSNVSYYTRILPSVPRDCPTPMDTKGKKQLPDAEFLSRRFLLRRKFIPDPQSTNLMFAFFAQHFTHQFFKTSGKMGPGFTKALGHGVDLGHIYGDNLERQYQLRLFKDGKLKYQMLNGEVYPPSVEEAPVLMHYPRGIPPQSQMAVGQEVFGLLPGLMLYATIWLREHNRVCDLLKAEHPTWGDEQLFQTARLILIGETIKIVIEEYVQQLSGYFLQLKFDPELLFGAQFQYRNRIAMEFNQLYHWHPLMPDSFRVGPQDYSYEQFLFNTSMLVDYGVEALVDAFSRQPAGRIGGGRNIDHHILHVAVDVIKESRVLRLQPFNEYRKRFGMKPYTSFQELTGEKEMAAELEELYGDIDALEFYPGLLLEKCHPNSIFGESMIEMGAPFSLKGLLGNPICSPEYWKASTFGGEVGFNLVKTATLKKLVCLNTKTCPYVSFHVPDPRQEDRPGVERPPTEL
Description: In vitro inhibitory activity against Prostaglandin G/H synthase 1 (COX-1)

Assay [2] concerns the target T2, Prostaglandin G/H synthase 2 (Bos taurus, UniProt O62698).
T2 sequence (O62698 whole entry): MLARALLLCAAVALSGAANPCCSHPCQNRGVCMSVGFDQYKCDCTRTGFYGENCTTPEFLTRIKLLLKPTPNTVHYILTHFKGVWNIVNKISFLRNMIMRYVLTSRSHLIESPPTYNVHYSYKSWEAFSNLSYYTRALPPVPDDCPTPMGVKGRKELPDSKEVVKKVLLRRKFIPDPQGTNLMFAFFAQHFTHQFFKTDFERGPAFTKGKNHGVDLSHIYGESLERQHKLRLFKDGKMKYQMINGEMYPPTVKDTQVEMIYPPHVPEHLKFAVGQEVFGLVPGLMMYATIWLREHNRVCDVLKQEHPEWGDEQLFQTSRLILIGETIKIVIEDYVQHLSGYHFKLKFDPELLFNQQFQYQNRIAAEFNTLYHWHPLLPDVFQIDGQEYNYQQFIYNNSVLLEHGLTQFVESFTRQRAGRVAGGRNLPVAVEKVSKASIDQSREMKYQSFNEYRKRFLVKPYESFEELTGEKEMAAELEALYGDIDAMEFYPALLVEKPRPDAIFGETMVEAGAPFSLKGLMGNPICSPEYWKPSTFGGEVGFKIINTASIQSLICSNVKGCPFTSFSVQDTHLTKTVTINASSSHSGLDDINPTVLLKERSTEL
Description: In vitro inhibitory activity against prostaglandin G/H synthase 2 (COX-2)

Assay [3] has as its system Rattus norvegicus. Kind of assay: In vivo antiinflammatory activity against rat carrageenan-induced foot paw edema model at 5 hr following a 1 mg/kg oral dose. It is filed as functional.
Assay [4] has as its system Rattus norvegicus. Kind of assay: Analgesic activity was determined in rat using 4% sodium chloride-induced abdominal constriction assay at a duration of 60 min following a 1 mg/kg intraperitoneal dose. The format is functional. The following applies: Abdomen, ip, 1 h.
Assay [5] concerns Rattus norvegicus. In words: Analgesic activity was determined in rat using 4% sodium chloride-induced abdominal constriction assay at a duration of 30 min following a 1 mg/kg intraperitoneal dose. It is filed as functional. Conditions: Abdomen, ip, 0.5 h.
The test system of assay [6] is Rattus norvegicus. Kind of assay: In vivo antiinflammatory activity against rat carrageenan-induced foot paw edema model at 3 hr following a 1 mg/kg oral dose. The format is functional.
Assay [7] relates to Rattus norvegicus. In words: In vivo antiinflammatory activity against rat carrageenan-induced foot paw edema model at 3 hr following a 1 mg/kg oral dose; NA is inactive. The format is functional, organism-based. Set-up: dose 1 mg/kg. Conditions: at 1 mg/kg. Background: In the carrageenan paw model, swelling and tenderness develop within hours.

Each structure is given as a SMILES string. Active and inactive are the calls of the source. No cut-off for these calls is given here.

For `Cc1cc(-c2ccc(F)cc2)c(-c2ccc(S(C)(=O)=O)cc2)c(=O)o1`, the figures for the IC50 in assay [1] and in assay [2] were 201 µM and 125 µM, respectively.

As to `COc1cc(-c2ccc(F)cc2)c(-c2ccc(S(C)(=O)=O)cc2)c(=O)o1`, the inhibition in vivo (commonly the share of the control response that was lost under treatment) at 1 mg/kg in the assay on Rattus norvegicus [3] was found to be 30%; with Rattus norvegicus [4] it was 72.6%; in the assay with Rattus norvegicus [5], 49%; in the assay with Rattus norvegicus [6], 30.6%. For the same compound, the concentration for half-maximal inhibition (IC50) (usually the midpoint of a concentration-inhibition curve) in assay [1] is over 1000 µM; in assay [2] it was 59.5 µM.

With `CC(C)c1cc(-c2ccccc2)c(-c2ccc(S(C)(=O)=O)cc2)c(=O)o1`, the inhibition in vivo at 1 mg/kg stood at 19.5% with Rattus norvegicus [3], 56.9% in the assay with Rattus norvegicus [4], 67.8% in the assay on Rattus norvegicus [5] and 9.8% in the assay with Rattus norvegicus [6].

Turning to `CC(C)COc1cc(-c2ccccc2)c(-c2ccc(S(C)(=O)=O)cc2)c(=O)o1`, the concentration for half-maximal inhibition (IC50) was 3.1 µM in assay [1] and 1.8 µM in assay [2].

Turning to `CC(C)Oc1cc(-c2ccc(F)cc2)c(-c2ccc(S(C)(=O)=O)cc2)c(=O)o1`, the IC50 in assay [1] was found to be 560 µM; in assay [2] it was 83.6 µM.

Regarding `CC(C)(C)Oc1cc(-c2ccc(F)cc2)c(-c2ccc(S(C)(=O)=O)cc2)c(=O)o1`, the IC50 in assay [1] was 68.5 µM; in assay [2], 20.4 µM.

For the compound `CCCSc1cc(-c2ccccc2)c(-c2ccc(S(C)(=O)=O)cc2)c(=O)o1`, the IC50 in assay [1] and in assay [2] was over 100 µM in each case.

Take `CCSc1cc(-c2ccc(F)cc2)c(-c2ccc(S(C)(=O)=O)cc2)c(=O)o1`: the inhibition in vivo at 1 mg/kg came to 16.8% in the assay on Rattus norvegicus [3], 66% in the assay on Rattus norvegicus [4], 54.3% with Rattus norvegicus [5] and 25.8% in the assay on Rattus norvegicus [6]. The results for the half-maximal inhibitory concentration (IC50) in assay [1] and in assay [2] were over 100 µM and 1.44 µM, respectively.

As to `Cc1cc(-c2ccccc2)c(-c2ccc(S(C)(=O)=O)cc2)c(=O)o1`, the inhibition in vivo at 1 mg/kg with Rattus norvegicus [3] amounted to 23.5%; in the assay on Rattus norvegicus [4] it was 60.4%; with Rattus norvegicus [5], 57%; in the assay with Rattus norvegicus [6], 12.5%.

For `CC(C)COc1cc(-c2ccc(F)cc2)c(-c2ccc(S(C)(=O)=O)cc2)c(=O)o1`, the concentration for half-maximal inhibition (IC50) was 42.6 µM in assay [1] and 35 µM in assay [2].

For `COc1cc(-c2ccccc2)c(-c2ccc(S(C)(=O)=O)cc2)c(=O)o1`, in the assay with Rattus norvegicus [7], the inhibition entry was “inactive”. Also, the inhibition in vivo at 1 mg/kg was determined as 22% with Rattus norvegicus [3], 83.4% in the assay with Rattus norvegicus [4] and 55.2% in the assay on Rattus norvegicus [5].

Take `CS(=O)(=O)c1ccc(-c2c(-c3ccccc3)cc(OCc3ccc(Cl)cc3)oc2=O)cc1`: the values for the half-inhibitory concentration (IC50) in assay [1] and in assay [2] were 50.7 µM and 416 µM, respectively.

Turning to `CC(C)Cc1ccc(C(C)C(=O)O)cc1` (stereo not drawn) [IBUPROFEN], the values for the inhibition in vivo at 1 mg/kg in the assay on Rattus norvegicus [3] and in the assay with Rattus norvegicus [6] were 41.5% and 56.2%, respectively.

Turning to `CCSc1cc(-c2ccccc2)c(-c2ccc(S(C)(=O)=O)cc2)c(=O)o1`, the inhibition in vivo at 1 mg/kg in the assay with Rattus norvegicus [3] was found to be 19.5%; with Rattus norvegicus [4] it was 77.4%; with Rattus norvegicus [5], 81%; with Rattus norvegicus [6] it was 9.2%.

As to `CC(C)(C)Oc1cc(-c2ccccc2)c(-c2ccc(S(C)(=O)=O)cc2)c(=O)o1`, the inhibition in vivo at 1 mg/kg is 30.1% in the assay on Rattus norvegicus [3], 80.9% with Rattus norvegicus [4], 73.8% in the assay with Rattus norvegicus [5] and 29% in the assay on Rattus norvegicus [6]. For the same compound, the half-maximal inhibitory concentration (IC50) in assay [1] is over 100 µM; in assay [2], 2.7 µM.

`CC(C)c1cc(-c2ccc(F)cc2)c(-c2ccc(S(C)(=O)=O)cc2)c(=O)o1`: the inhibition in vivo at 1 mg/kg amounted to 69.1% in the assay with Rattus norvegicus [3], 20.7% in the assay with Rattus norvegicus [4], 50.9% with Rattus norvegicus [5] and 35.8% in the assay with Rattus norvegicus [6]. In addition, the 50% inhibitory concentration (IC50) in assay [1] worked out at 15.7 µM; in assay [2], 13.6 µM.

With `CCOc1cc(-c2ccc(F)cc2)c(-c2ccc(S(C)(=O)=O)cc2)c(=O)o1`, the inhibition in vivo at 1 mg/kg in the assay with Rattus norvegicus [3] came to 67.8%; in the assay with Rattus norvegicus [4], 75.7%; in the assay with Rattus norvegicus [5] it was 42.8%; with Rattus norvegicus [6], 32.7%. For the same compound, the concentration for half-maximal inhibition (IC50) in assay [1] turned out to be 288 µM; in assay [2], 0.1 µM.

With `CS(=O)(=O)c1ccc(-c2c(-c3ccc(F)cc3)cc(OCc3ccc(Cl)cc3)oc2=O)cc1`, the values for the concentration for half-maximal inhibition (IC50) in assay [1] and in assay [2] were 301 µM and 53.3 µM, respectively.

On to `Cc1ccc(-c2cc(C(F)(F)F)nn2-c2ccc(S(N)(=O)=O)cc2)cc1` [CELECOXIB], for which the inhibition in vivo at 1 mg/kg in the assay with Rattus norvegicus [3] was determined as 58.2%; with Rattus norvegicus [4], 62%; in the assay on Rattus norvegicus [5] it was 31.7%; in the assay on Rattus norvegicus [6], 79.9%.
